Laboratory results taken from patent US12053533B2, “Fluorescent probe for cyclooxygenase-2” (The Board of Trustees of the University of Illinois, priority 2020, dated 2024).

Assays:
[1] = tested on: horseradish peroxidase, bovine catalase, porcine esterase, human CYP2J2 (with cytochrome reductase), rat liver microsomes; test: Enzyme selectivity panel (off-target activation); format: biochemical; details: 10-fold excess protein (1.01 U vs 0.101 U COX-2), CoxFluor 10 μM
Protocol: Enzyme Selectivity. Enzyme activity was defined as the amount substrate (μmol) consumed during one minute by one milligram of enzyme in 100 mM Tris-HCl at pH 8.0 under saturating conditions. Enzyme concentrations were measured using the BCA assay (Thermo Fisher Scientific) according to the published protocol with bovine serum albumin for the standard curve. COX-1 and COX-2 cyclooxygenase activities were measured using Strathkelvin oxygen electrode with arachidonic acid (200 μM). The oxygen electrode was calibrated using 1% sodium sulfite for 0% oxygen and atmosphere equilibrated 100 mM Tris-HCl at pH 8.0 for 100% oxygen. The reaction was monitored at 37° C. in a glass chamber with a total reaction volume of 1 mL. […]
Porcine esterase activity was measured spectroscopically at 405 nm using p-nitrophenyl acetate (1.5 mM) as the substrate. Bovine catalase activity was measured using a discontinuous Amplex® Red-horseradish peroxidase assay to quantify the amount of hydrogen peroxide (initially 31.25 μM) remaining after 0.5 h incubation with excitation at 540 nm and emission at 590 nm. CYP2J2 activity was measured spectroscopically at 340 nm using […] (3-fold excess), NADPH (1 mM), and arachidonic acid (70 μM) as the substrate. […]
Selectivity was assessed using 10-fold excess protein (350 μg/mL) and the solution was brought to a pH of 8.0 after 4 h with 0.5 M aq. […]

[2] = CoxFluor, Ctrl-CoxFluor & Resorufin stability assays; format: physicochemical; details: 8 hours at room temperature or 37° C., with or without ambient light
Protocol: CoxFluor, Ctrl-CoxFluor & Resorufin Stability Assays. Stability assays were performed for a 10 μM solution of each compound in a series of buffers/solvents (100 mM Tris-HCl at pH 8.0, DMEM with 10% FBS, DMEM without serum and DMSO). Stability was assessed at room temperature or at 37° C. and in the presence or absence of ambient light. Fluorescence was measured using the plate reader with excitation at 540 nm and emission from 560-700 nm and the relative turn-on was determined by the change of fluorescence intensity at 590 nm.

[3] = target: T1, COX-2 (Homo sapiens, UniProt P35354); test: COX-2 fluorescence assay with CoxFluor (fluorimeter / plate reader); format: biochemical; set-up: made in house
T1 sequence (P35354 18-604): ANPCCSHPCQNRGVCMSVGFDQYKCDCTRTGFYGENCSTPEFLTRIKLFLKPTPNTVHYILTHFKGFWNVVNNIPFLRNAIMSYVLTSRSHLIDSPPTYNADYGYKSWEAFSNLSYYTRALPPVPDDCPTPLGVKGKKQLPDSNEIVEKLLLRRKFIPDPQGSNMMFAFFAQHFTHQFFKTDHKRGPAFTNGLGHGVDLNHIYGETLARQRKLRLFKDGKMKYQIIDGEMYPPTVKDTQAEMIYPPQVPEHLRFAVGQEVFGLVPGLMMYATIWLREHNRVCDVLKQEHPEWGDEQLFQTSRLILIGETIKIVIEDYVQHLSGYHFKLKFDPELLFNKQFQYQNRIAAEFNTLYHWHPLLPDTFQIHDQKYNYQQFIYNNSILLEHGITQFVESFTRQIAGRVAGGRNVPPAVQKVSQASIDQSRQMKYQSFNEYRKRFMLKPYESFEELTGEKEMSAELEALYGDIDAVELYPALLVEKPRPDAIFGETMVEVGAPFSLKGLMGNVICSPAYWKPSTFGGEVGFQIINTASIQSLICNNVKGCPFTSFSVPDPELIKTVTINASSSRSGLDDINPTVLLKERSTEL
Protocol: Fluorimeter Fluorescence Assay. The fluorescence assays were performed in microquartz cuvettes or submicroquartz cuvettes with a maximum volume of 600 μL. Reactions were monitored at room temperature using 540 nm excitation and emission was collected from 550-700 nm with a slit width of 1.25 mm. Total volumes of the reaction mixtures were maintained at 570 μL. […] Experiments in the presence of reduced GSH were conducted according to the same procedure, but GSH (30 μL, 19 mM in 100 mM Tris-HCl, pH 8.0) was added before the addition of CoxFluor for a final concentration of 1 mM. Assays performed in submicroquartz cuvettes were performed maintaining the same ratios, but with a final volume of 142.5 μL.
Plate Reader Fluorescence Assay. The fluorescence assays were performed at room temperature using 540 nm excitation and 590 nm emission. Total volume of the reaction mixture was maintained at 190 μL. […] Inhibition assays were performed according to the same procedure, but COX-2 was preincubated with hemin and inhibitor for 0.5 h at 0° C. before initiation with CoxFluor. Relative fluorescence enhancement is calculated by comparing to a buffer control with 10 μM CoxFluor.

## CCCCC/C=C\C/C=C\C/C=C\C/C=C\CCCC(=O)N1c2ccc(O)cc2Oc2cc(O)ccc21 [CoxFluor]
[1]
  selectivity against tested enzymes: good selectivity
[2]
  stability in Tris-HCl and DMEM buffer systems: stable
[3]
  measured rate for turnover relative to natural substrate cyclooxygenase activity: ≤ 100 fold
[3]; CoxFluor 10 μM, COX-2 250 nM, hemin 1 μM, 4 h, room temperature, 100 mM Tris HCl pH 8.0
  fluorescent turn-on response: 41 fold
[3]; glutathione 1 mM, COX-2 250 nM
  COX-2-specific fluorescence enhancement in the presence of glutathione: maintained significant COX-2-specific fluorescence enhancements
